From PubChem BioAssay (NCI)
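Growth conditions: 96-well plates. Treatment: test compound, 48 hours, 5 concentrations. Analysis: linear interpolation between bracketing concentrations; unreached endpoints set to highest concentration. Definition used: TGI = concentration required for complete inhibition of growth.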

How the values were obtained:
Assay in all cases: growth of human tumour cells (NCI), 48 h
LOX IMVI melanoma = tested on: LOX IMVI melanoma
MCF7 breast = tested on: MCF7 breast
RXF 393 renal = tested on: RXF 393 renal
SK-MEL-2 melanoma = tested on: SK-MEL-2 melanoma
BT-549 breast = tested on: BT-549 breast
SK-MEL-5 melanoma = tested on: SK-MEL-5 melanoma
SNB-75 CNS = tested on: SNB-75 CNS
UACC-257 melanoma = tested on: UACC-257 melanoma
OVCAR-5 ovarian = tested on: OVCAR-5 ovarian
CCRF-CEM leukemia = tested on: CCRF-CEM leukemia
MDA-N = tested on: MDA-N

Structure (SMILES) | TGI (LOX IMVI melanoma) [µM] | TGI (MCF7 breast) [µM] | TGI (RXF 393 renal) [µM] | TGI (SK-MEL-2 melanoma) [µM] | TGI (BT-549 breast) [µM] | TGI (SK-MEL-5 melanoma) [µM] | TGI (SNB-75 CNS) [µM] | TGI (UACC-257 melanoma) [µM] | TGI (OVCAR-5 ovarian) [µM] | TGI (CCRF-CEM leukemia) [µM] | TGI (MDA-N) [µM]
COc1ccc2oc(=O)c(-c3csc(C)n3)cc2c1 | > 100 | > 100 | > 100 | > 100 | 29.2 | > 100 | 55.6 | > 100 | > 100 | > 100 | –
Nc1c(Cl)ncnc1NCCCNc1ncnc(Cl)c1N | > 100 | – | > 100 | > 100 | – | > 100 | – | > 100 | > 100 | > 100 | –
O=C1Nc2ccccc2/C1=c1\[nH]c(=O)/c(=C\c2ccc(OCc3ccccc3)cn2)[nH]c1=O | > 100 | > 100 | 34.9 | > 100 | – | > 100 | 14 | > 100 | > 100 | > 100 | > 100
Cc1c(/C=N/N(C)C)oc2c1cc(O)c1ncccc12 | 45.2 | – | 58.6 | 44.5 | – | 39.3 | 86.6 | > 100 | > 100 | 7.26 | –
NNC(=O)c1cc(=O)[nH][nH]1 | – | > 100 | > 100 | > 100 | > 100 | > 100 | > 100 | > 100 | > 100 | > 100 | > 100
COC(=O)c1ccc(Nc2nc3nc[nH]c3c(=O)[nH]2)cc1 | > 100 | > 100 | – | > 100 | > 100 | > 100 | > 100 | > 100 | > 100 | > 100 | > 100
CSC1NC(c2ccc(Cl)cc2)=C(C#N)C(=O)N1C1OCC(OC(C)=O)C(OC(C)=O)C1OC(C)=O (stereo not given) | > 100 | > 100 | – | – | > 100 | > 100 | > 100 | > 100 | > 100 | – | > 100
CN1c2ccccc2N(C(=O)c2ccccc2)C(CC(=O)O)c2cccn21 (stereo not given) | > 100 | – | > 100 | > 100 | – | > 100 | > 100 | > 100 | > 100 | > 100 | –
CC(=O)N(O)c1ccc(-c2nc3ccccc3s2)cc1 | > 100 | – | > 100 | > 100 | – | > 100 | > 100 | > 100 | > 100 | > 100 | > 100
O=C(NC(=S)NC(=O)c1cc(O)c(O)c(O)c1)c1cc(O)c(O)c(O)c1 | 60.3 | > 100 | 41.5 | 40.4 | – | 57.7 | – | 44.8 | 78.8 | > 100 | 6.06
CC(=O)N1CCn2c1nc1cc(Cl)ccc12 | > 100 | > 100 | 53.9 | 92.4 | > 100 | > 100 | – | > 100 | > 100 | > 100 | > 100
Cc1nc2c(=S)n(C)ncc2[nH]1 | > 100 | > 100 | – | > 100 | > 100 | > 100 | > 100 | > 100 | > 100 | > 100 | > 100
N#C[C@H](c1nc2ccccc2s1)c1nc2ccccc2nc1Cl | – | 24.8 | 32 | > 100 | 21.4 | > 100 | > 100 | 43.3 | 39 | > 100 | > 100
CCOC(=O)Oc1ccc2c(c1)c(=O)c1c(NCCN(CC)CC)ccc3nnn2c31 | 4.16 | 12 | 18.8 | 27 | 23.1 | 16.1 | – | 21.1 | 22.7 | 1.54 | 15.6
CC1=NC(=Cc2ccc([N+](=O)[O-])cc2)C(=O)N1n1c(-c2ccccc2)nc2ccccc2c1=O | > 100 | > 100 | – | – | > 100 | > 100 | > 100 | > 100 | – | > 100 | > 100
CC1C(c2ccc(Cl)cc2)c2cc3c(cc2OC1N1CCOCC1)OCO3 (stereo not given) | > 100 | > 100 | – | > 100 | – | > 100 | > 100 | > 100 | > 100 | > 100 | > 100
CCc1nc2ccc(NCCN(C)C)c3c(=O)c4ccccc4n1c23 | 2.63 | 21.1 | 6.03 | 6.98 | 21.2 | 2.32 | 11.9 | 11.8 | 6.69 | 15.1 | –
COc1ccc(/C=N/n2cnc3[nH]c(C)c(Cc4ccccc4)c3c2=N)cc1 | – | > 100 | 79.3 | > 100 | > 100 | > 100 | > 100 | > 100 | > 100 | > 100 | > 100
COc1cc(C2c3cc4c(cc3OC(N3CCNCC3)C2C)OCO4)cc(OC)c1OC (stereo not given) | 19 | 66.1 | 0.99 | > 40.6 | 30.2 | 4.03 | – | > 47.9 | > 100 | 17.7 | 0.652
CC1(C)CC(=O)C2=C(C1)OC1=C(CC(C)(C)CC1=O)C2c1ccccc1[N+](=O)[O-] (stereo not given) | > 100 | – | > 100 | > 100 | – | > 100 | > 100 | – | > 100 | > 100 | > 100
CC1(C)C(=O)C(C)(C)C1=S | > 100 | – | – | > 100 | – | > 100 | > 100 | > 100 | > 100 | > 100 | –
COc1ccc(-n2sc3ncccc3c2=O)cc1 | > 100 | 49.1 | – | > 100 | 38.6 | 44.6 | 51 | 34.2 | 64.2 | > 100 | 40.7
CCCC(CCN)(CCN)[N+](=O)[O-] | – | – | > 100 | > 100 | > 100 | > 100 | > 100 | > 100 | > 100 | > 100 | > 100
